According to article PMC5490255, “Minute Impurities Contribute Significantly to Olfactory Receptor Ligand Studies: Tales from Testing the Vibration Theory” (eNeuro, 2017):

Experiments:
Or42b (dOr42b) [1] = target: T1, Or42b (dOr42b) (Drosophila melanogaster, UniProt Q9V9I4); test: GC-coupled calcium imaging (GCaMP6m) of Or42b neurons; conditions: inhibitory (calcium decrease) at own elution time, direct receptor action not separately proven
T1 construct: native receptor in Or42b olfactory sensory neurons of living female flies (Or42b-Gal4 > UAS-GCaMP6m); calcium imaging of antenna or glomerulus DM1; endogenous Orco; with Odorant receptor coreceptor
T1 sequence (Q9V9I4 1-399): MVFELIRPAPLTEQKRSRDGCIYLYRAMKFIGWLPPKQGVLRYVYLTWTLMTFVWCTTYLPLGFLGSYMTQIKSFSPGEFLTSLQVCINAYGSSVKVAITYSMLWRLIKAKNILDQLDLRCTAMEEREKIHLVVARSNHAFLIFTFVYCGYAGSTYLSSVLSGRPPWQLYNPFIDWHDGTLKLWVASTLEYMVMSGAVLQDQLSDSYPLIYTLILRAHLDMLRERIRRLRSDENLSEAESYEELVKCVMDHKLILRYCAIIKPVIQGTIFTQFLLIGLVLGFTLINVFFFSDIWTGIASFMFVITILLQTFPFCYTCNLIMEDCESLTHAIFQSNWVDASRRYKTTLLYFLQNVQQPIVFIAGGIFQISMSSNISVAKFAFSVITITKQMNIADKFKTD
T1 sequence (Q9VNB5 1-486 partner): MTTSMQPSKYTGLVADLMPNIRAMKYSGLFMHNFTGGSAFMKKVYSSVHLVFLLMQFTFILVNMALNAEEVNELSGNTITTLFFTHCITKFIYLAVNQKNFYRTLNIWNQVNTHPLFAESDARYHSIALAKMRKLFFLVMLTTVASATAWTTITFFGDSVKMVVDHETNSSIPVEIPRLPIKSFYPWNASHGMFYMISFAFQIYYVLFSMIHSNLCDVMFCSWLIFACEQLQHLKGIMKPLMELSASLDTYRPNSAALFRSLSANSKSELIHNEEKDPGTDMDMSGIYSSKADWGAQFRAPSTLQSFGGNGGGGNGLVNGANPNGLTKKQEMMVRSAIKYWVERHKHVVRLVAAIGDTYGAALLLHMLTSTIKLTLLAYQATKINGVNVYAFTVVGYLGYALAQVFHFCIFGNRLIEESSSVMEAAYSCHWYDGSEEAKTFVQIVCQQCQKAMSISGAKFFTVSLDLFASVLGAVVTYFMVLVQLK

Or42b (dOr42b) [2] = target: T1, Or42b (dOr42b); test: GC-coupled antennal calcium imaging (GCaMP6m) of Or42b neurons, single dose; conditions: agonist, 10^-2 dilution
[3] = GC-purified eluate of headspace

SMILES	GC-coupled antennal calcium imaging (GCaMP6m) of Or42b neurons, single dose (Or42b (dOr42b) [2]; [3])	further results
O=Cc1ccccc1 [benzaldehyde-d5]		GC-coupled calcium imaging (GCaMP6m) of Or42b neurons (Or42b (dOr42b) [1]; 10^-2 and 10^-1 dilution, deuterated compound, excitation without GC due to ethyl acetate impurity): response to either benzaldehyde-h or benzaldehyde-d5 was inhibitory at the elution time of benzaldehyde
O=Cc1ccccc1 [benzaldehyde-h]		GC-coupled calcium imaging (GCaMP6m) of Or42b neurons (Or42b (dOr42b) [1]; 10^-2 dilution): response to either benzaldehyde-h or benzaldehyde-d5 was inhibitory at the elution time of benzaldehyde
CCOC(=O)C[C@H](C)O [ethyl (S)-(+)-3-hydroxybutyrate]	ethyl propionate, propyl acetate, and ethyl (S)-(+)-3-hydroxybutyrate all elicited responses that decayed slowly	
CCCC(=O)OCC [ethyl butyrate]		GC-coupled antennal calcium imaging (GCaMP6m) of Or42b neurons, single dose (Or42b (dOr42b) [2]; GC-purified, own elution peak (sample also held other active impurities)): unknown, and one corresponding to ethyl butyrate itself
CCOC(=O)CC [ethyl propionate]	ethyl propionate, propyl acetate, and ethyl (S)-(+)-3-hydroxybutyrate all elicited responses that decayed slowly	
CCCOC(C)=O [propyl acetate]	ethyl propionate, propyl acetate, and ethyl (S)-(+)-3-hydroxybutyrate all elicited responses that decayed slowly	
